Assay results from patent publication US7259232B1, “Preferred segments of neural thread protein” (Nymox Pharmaceutical Corporation, priority 2000, dated 2007).

Experiments:
NTP [1] = assay: NTP immunoreactivity of Harlil peptides conjugated to rabbit IgG (Example 1); assay type: binding; conditions: peptides conjugated to maleimide activated Rabbit IgG
Description: The following Harlil sequences were synthesized (Synpep, Dublin Calif.) and conjugated to maleimide activated Rabbit IgG (Jackson Immunoresearch, West Grove Pa.) and assessed for their NTP immunoreactivity. […] (SEQ ID NOS 4-11, respectively, in order of appearance)
Conjugation to carrier proteins was through a cysteine. Thus, peptides NTP-1 and NTP-2 produced mixed conjugate results because there is more than one cysteine residue. Therefore, for peptides NTP-5 and NTP-6, the secondary cysteine was blocked with ACM.

rabbit IgG = assay: Precipitation of rabbit immunoglobulin by Harlil peptide (Example 3); conditions: start 3.4 mg RGG + 1 mg NTP-3, pH 7, dialyzed overnight
Procedure: The purpose of this example was to show the self-aggregation ability of a Harlil peptide. The Harlil peptide NTP-3 forms disulfide bonds (because of the cysteine residue) and dimerizes at neutral pH. Since the dimerized peptide can bind two immunoglobulins, it can cause precipitation.
1 mg of the Harlil peptide NTP-3 in 1 mL of dimethylsulfoxide (DMSO) was added to 3.4 mg of rabbit IgG (Jackson Immunoresearch, West Grove, Pa.) at pH 7. The mixture was allowed to dialyze over night, and a clear white precipitate was observed the next morning. The precipitate was removed by centrifugation and the protein concentration of the supernatant was determined by absorbance at 280 nm using a Perkin Elmer spectrophotometer model Lambda 3B. Precipitation of immunoglobulin is prevented at a low pH, e.g., pH of 3.5 or less 3.5.

NTP [2] = assay: Affinity purification of NTP from AD patient urine on NTP-3 agarose column, activity by 7C Gold strip (Example 2); assay type: binding, human; conditions: pH 2 eluate, gel bands assayed with 7C Gold, activity only in 35-45 kD band
Procedure: Preparation of the Urine Sample Containing NTP for Testing: The biological source of NTP used was the urine of a patient (BOU1) diagnosed with AD. Before application to the column material, the biological sample was processed according to the following protocol for processing of urine for AD testing: • 1. The urine was tested with an Ames Multistix™ (Bayer, Ind.). […] The urine was centrifuged at 3000×g for 15 minutes to remove cellular debris. • 3. The urine was filtered using a syringe through a 0.22 μm cellulose acetate filter, and the filtrate was brought to 0.05% azide. • 4. The resultant aliquot was placed in the top reservoir of an Amicon Centricon® YM-10 Millipore, and centrifuged at 3000×g for one hour. • 5. […] Protein Concentration: The protein concentration in the eluate was 108 μg, as determined by Coomassie Blue staining (BioRad, Hercules, Calif.). […] Protein concentration was 145 μg, as determined by Bicinchoninic Acid Kit (Cat. # 23223, BioRad). Absorbance corrected for the buffer at 280 nm was 390, indicating 390 μg of protein. The larger protein amount obtained with absorbance measurement is likely a result of the presence of a large amount of aromatic amino acids in NTP, which can cause overestimation of protein using this measurement technique. […]

[3] = tested on: NTP3-RGG coated microtiter plate; assay: Microtiter plate assay: inhibition of conjugate binding to Harlil peptide coated plate (Example 5); conditions: monomer (unconjugated) peptide; peroxidase conjugated rabbit IgG; FIG. 2
Procedure: Preparation of Microtiter Plate: The Harlil peptide/immunoglobulin complex NTP3-RGG, in a ratio of 30:1 and prepared as in Example 4, was coated on an Immulon 4 microtiter plate (Dynex, Chantilly, Va.) at a concentration of 0.5 μg/well.
Standards: Recombinant NTP in TBS (described in de la Monte et al., J. of Neuropath. Exp. Neurol., 55:1038-1050 (1996)). 0.01% azide (Nymox Pharm. Corp., Lot 4-7-98), was serially diluted into TBS. 100 μl of each dilution was incubated at pH 3.5 for one hour. The dilutions were then washed for fifteen minutes in TBS, 0.1% albumin, and 0.05% Tween 80. This was followed by 3 washes in TBS and 0.05% Tween 80. Microtiter Plate Assay: 100 μl of 1:8000 dilution of peroxidase conjugated rabbit IgG (Jackson Immunoresearch, West Grove, Pa.) was then added and allowed to react for 30 minutes. The microtiter plate was washed twice with TBS and 0.05% Tween 80, followed by the addition of 150 μl of […] (TMB) (Serex Inc., Maywood, N.J.). The mixture was then incubated for 10 min. and stopped with 50 μl of 2 N HCl. Absorbance was read in a SLT 340 ATTC spectrophotometer.

NTP [4] = assay: Protein G column pass-through of NTP positive and negative samples (Example 7); assay type: binding; conditions: NTP positive and negative samples passed through Protein G column; NTP not significantly reduced
Description: Protein G binds antibody through the Fc region. […] Specifically, since Harlil peptides recognize Harlil peptides, Harlil peptides recognize the Fc region of antibody, and Protein G recognizes the Fc region of antibody, this experiment determined whether Protein G recognizes NTP.
Both an NTP positive and an NTP negative sample were passed through a Protein G column.

NTP, sequence (as listed by the source): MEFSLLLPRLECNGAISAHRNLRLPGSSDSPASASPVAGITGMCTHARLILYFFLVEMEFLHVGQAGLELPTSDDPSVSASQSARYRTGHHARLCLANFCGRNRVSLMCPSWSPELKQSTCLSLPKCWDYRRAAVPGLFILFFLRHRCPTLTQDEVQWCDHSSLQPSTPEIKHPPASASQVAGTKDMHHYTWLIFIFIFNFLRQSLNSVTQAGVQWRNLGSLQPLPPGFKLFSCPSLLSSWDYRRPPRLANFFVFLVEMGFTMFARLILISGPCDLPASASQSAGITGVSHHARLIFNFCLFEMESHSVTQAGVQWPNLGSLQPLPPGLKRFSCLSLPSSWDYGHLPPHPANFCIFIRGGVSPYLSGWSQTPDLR

| Molecule | NTP immunoreactivity (NTP [1]) | % Protein Precipitated (rabbit IgG) | binding of NTP by NTP-3 affinity column (NTP [2]) | inhibition of conjugate binding to the plate [3] | binding of Protein G to NTP (NTP [4]) |
| --- | --- | --- | --- | --- | --- |
| C A R Y R T G H H A R L M (CARYRTGHHARLM) [NTP-3] | good reactivity | 39% | selectively bound the NTP protein | inhibits the binding of conjugate to the plate | – |
| Protein G: Protein G, binds antibody through the Fc region; used as column (protein) TYKLILNGKTLKGETTTEAVDAATAEKVFKQYANDNGVDGEWTYDDATKTFTVTEKPEVIDASELTPAVTTYKLVINGKTLKGETTTKAVDAETAEKAFKQYANDNGVDGVWTYDDATKTFTVTE | – | – | – | – | does not bind to NTP |
